Reference: US9896482B2, “Beta hairpin peptides having antiviral properties against Dengue virus” (CENTRO DE INGENIERÍA GENÉTICA Y BIOTECNOLOGÍA, priority 2014, dated 2018)
Like-named read-outs stand apart in the source and are kept apart here. Where a SMILES comes first, the peptide text is derived from it. Bridges are numbered along the chain shown (N, C = ends). [ ]: non-standard residue; d: D form.

How the values were obtained:
[1] = system: DENV serotype 2 (NIBSC code S16803); assay: Plaque reduction assay in Vero cells, DENV2; type: cell-based, Dengue virus
Protocol: (§1) The cells were grown in 24 well plates until the monolayer reached approximately 90% confluence, after which they were washed twice with MEM medium without Fetal Bovine Serum (FBS). Then, peptide dilutions were added and the cell-peptide mixtures were incubated typically for 1 hour at 37° C., followed by the addition of a DENV serotype 2 preparation (NIBSC code S16803) at a multiplicity of infection (m.o.i.) of 0.001. The cells were then incubated for 1 hour at 37° C., and once the period of incubation with the viral inoculum concluded, were washed again to remove unbound virions and incubated for 5 days at 37° C. in high density medium (MEM supplemented with non-essential amino acids, 1% FBS, 1% carboxymethylcellulose) in order to let viral plaques form. Afterwards, the cells were stained with 0.1% Naphtol Blue Black in 0.15 M sodium acetate. Two replicates per experimental point were used in each assay, and three independent determinations were performed for each sample.
Next, it was decided to compare the antiviral activity of peptides PHB4 and HDIII3CL against all four DENV serotypes, with the objective of comparing their respective IC50 values. This comparison was performed with plaque reduction assays on Vero cells, adding the viral inoculum for each serotype (DENV1, NIBSC code West Pac 74, DENV2, NIBSC, code S16803; DENV3, NIBSC, code CH53489; DENV 4, NIBSC code TVP360) at a m.o.i. of 0.001.

[2] = system: DENV1 (NIBSC code West Pac 74); assay: Plaque reduction assay in Vero cells, DENV1; type: cell-based, Dengue virus; conditions: m.o.i. 0.001, read-out: Antiviral activity IC50 vs DENV1
Protocol: as §1
Next, it was decided to compare the antiviral activity of peptides PHB4 and HDIII3CL against all four DENV serotypes, with the objective of comparing their respective IC50 values. […]

[3] = target: T1, sLRP1-CIV (Homo sapiens, UniProt Q07954); assay: Biacore (SPR) binding to immobilized sLRP1-CIV; conditions: peptides at 20 μM
T1 construct: purchased R&D Systems, USA
Protocol: The interaction of the beta hairpin peptides with soluble fragments of the LRP1 receptor was studied by Surface Plasmon Resonance (SPR), using a Biacore X unit. In this technique, one of the interaction partners to be studied is immobilized on the surface of a chip, and the other interaction partner is dissolved in a solution that runs through the measurement cell on top of the interaction surface, under conditions of controlled flow. The association and dissociation of interacting partners is measured in resonance units (RU) and plotted, as a function of time, on charts known as ‘sensorgrams’. SPR, therefore, enables the experimenter to obtain detailed information about the interaction without having to label either interaction partner.
In this example, one channel of a CM5 chip (GE Healthcare, USA) was used to immobilize protein sLRP1-CIV on its surface at high density (see Table 6) and recombinant Human Serum Albumin (rHSA, Sigma-Aldrich, USA) was immobilized on the other channel.
Although it was decided to immobilize sLRP1-CIV at high density because these conditions make easier the detection of any potential interactions with compounds whose molecular weight is lower than that of average proteins (such as the peptides this experiment is intended to study), it must be stressed that in high-density surfaces, mass transfer limitations and the possibility of multivalent binding make difficult the accurate determination of kinetic constants. Therefore, and in order to characterize in greater detail the sLRP1-CIV binding surface, different RAP dilutions (0.6-20 μM) were loaded, and RU were registered under conditions of interaction equilibria (250 sec, see FIG. 13B). […] The data also indicate that immobilized sLRP1-CIV faithfully reproduces the previously reported characteristics of the LRP1-RAP interaction.
The binding of beta hairpin peptides to sLRP1-CIV was studied by loading 20 μM dilutions in running buffer of the different peptide variants onto the sLRP1-CIV chip characterized above. The high strength of the resulting signals is consistent with the binding of aggregated, rather than monomeric forms of the peptides. Therefore, the observed variations between different peptides may reflect either differences in the affinity of unitary peptide interactions or differences in aggregation numbers and/or geometries that lead to variations in the number of peptide units able to simultaneously engage immobilized sLRP1-CIV molecules in a multivalent manner. […] The difference between peptides HDIII3CL2 and HDIII3CL is that the former has an additional C-terminal lysine and has, therefore, a stronger cationic character, which may facilitate additional electrostatic interactions with the negatively charged LRP1 receptor.

[4] = Toxicity in Vero cells (MTT assay and manual cell counting); type: cell-based; conditions: ‡ non toxic at 1000 μM, read-out: Ctox50
Protocol: The toxicity of the beta hairpin peptides was assessed with the MTT (3-(4,5-dimethylthiazol-2-yl)-2,5-diphenyltetrazolium bromide, Invitrogen, USA) assay (Mosmann, T. (1983). J. Immunol. Methods 65, 55-63.), and by manual cell counting using a Neubauer chamber. Ninety-six well plates (Costar, USA) were seeded with 200 μL/well of a suspension containing Vero cells at 1×10^5 cells/mL and incubated until the monolayers reached approximately 90% confluence, typically for 18-24 h. After washing the cells twice with DMEM (Dulbecco's Modified Eagle Medium) medium, 50 μL/well were added of the peptide or additive dilutions to be evaluated (Triton ^X-100™ dissolved in PBS was used as positive toxicity control) and the plates were incubated at 37° C. under a 5% CO2 atmosphere for 2 or 24 h. Two different procedures were then employed to measure toxicity: • a) A 2 mg/mL solution of MTT in PBS was added (50 μL/well) and the plates were incubated for further 4 h at 37° C., 5% CO2. The medium was then removed, and 100 μL/well of DMSO were then added to solubilize formazan precipitates. Finally, the optical density (OD) of the supernatants at a wavelength of 540 nm was measured using a plate reader (Sensident Scan™, Merck, Germany). • b) The plates were washed with 200 μL/well of DMEM medium and then a trypsin solution (Sigma, USA) was added at 50 μL/well. After inactivating the trypsin by adding 150 μL/well of DMEM supplemented with 10% FBS, the cells were counted using the Trypan Blue (Gibco, USA) vital stain. The data were processed using the statistical software package Prism v5.3 (GraphPad, USA), using non-linear regression to fit them to a log10 (concentration) vs response curve.

With CC[C@H](C)[C@@H]1NC(=O)[C@H](Cc2ccccc2)NC(=O)[C@H](Cc2c[nH]c3ccccc23)NC(=O)[C@H](CC(N)=O)NC(=O)[C@H](C(C)C)NC(=O)[C@H](CCCCN)NC(=O)[C@H](Cc2c[nH]c3ccccc23)NC(=O)[C@H](CCCCN)NC(=O)[C@H]2CCCN2C(=O)[C@H](CCCNC(=N)N)NC(=O)[C@H]([C@@H](C)O)NC(=O)[C@H](Cc2c[nH]c3ccccc23)NC(=O)[C@H](Cc2ccc(O)cc2)NC(=O)[C@H](C(C)C)NC(=O)[C@H](CCC(=O)O)NC(=O)[C@H]([C@@H](C)CC)NC(=O)[C@@H](N)CSSC[C@@H](C(=O)N[C@@H](CCCCN)C(=O)N[C@@H](CCCCN)C(=O)N[C@@H](CCCCN)C(N)=O)NC1=O [PHB4] (H-CIEVYWTR[dP]KWKVNWFICKKK-NH2; disulfide 1-18; N-terminus assumed) the IC50 ([1]; DENV2, plaque reduction, NA = no detectable activity at concentrations lower than or equal to 100 μM, read-out: IC50, antiviral activity in Vero cells (50% inhibitory activity)) was 3 nM, the IC50 ([1]; Vero cells, m.o.i. 0.001, read-out: Antiviral activity IC50 vs DENV2) was 3 nM and the “Fold more potent than peptide HDIII3CL” value ([1]; depending on serotype, DENV1-4, Vero cells) was 4000- to 7500 fold. For the same molecule, the IC50 [2] was 2 nM, the “Binding to sLRP1-CIV by SPR, in words” value [3] was “strongest binding” and the CC50 [4] was 13000 nM.
